The values that follow come from ChEMBL document CHEMBL1138974 (Bioorg Med Chem Lett, 2006).

The source made the active and inactive calls. The rule behind the calls is not given here. Some results are limits rather than exact numbers.

In general, microsomal CLint refers to the rate of metabolic loss divided by the concentration. Read a high microsomal CLint as faster metabolism. For orientation: clearance means the rate of elimination divided by the concentration. High values mean a high capacity for elimination, low ones a low capacity for elimination. As a reminder, the bioavailability is dose-corrected exposure relative to a reference, in per cent. One may read the pKa as the pH at which an ionisable group is half protonated. Read a high pKa as a weaker acid or stronger base. As a reminder, the EC50 is the concentration needed to bring the measured effect to its halfway point. Usually IC50 stands for the concentration that gives 50% inhibition.

Series [1] in a line: Intrinsic clearance in human microsome. The note with it: microsomes. The class given is ADME.
Series [2] in a line: Clearance in rat. The note with it: in vivo. It is filed as ADME, organism-based.
A short description of series [3]: Oral bioavailability in rat. The class given is ADME, organism-based. The following applies: in vivo.
The nature of series [4]: Volume of distribution in rat. The class given is ADME, organism-based. The following applies: in vivo, read-out: Vss.
Series [5] in a line: Intrinsic clearance in rat microsome. The class given is ADME. The following applies: microsomes.
Series [6] can be described thus: Ratio of drug level in brain against plasma in rat. The class given is ADME, organism-based. The note with it: read-out: BPR.
Series [7] is described as follows: Dissociation constant, pKa of the compound. The class given is physicochemical.
Series [8] deals with T1, Sodium- and chloride-dependent glycine transporter 2 (Homo sapiens) (UniProt Q9Y345).
T1 sequence (whole entry): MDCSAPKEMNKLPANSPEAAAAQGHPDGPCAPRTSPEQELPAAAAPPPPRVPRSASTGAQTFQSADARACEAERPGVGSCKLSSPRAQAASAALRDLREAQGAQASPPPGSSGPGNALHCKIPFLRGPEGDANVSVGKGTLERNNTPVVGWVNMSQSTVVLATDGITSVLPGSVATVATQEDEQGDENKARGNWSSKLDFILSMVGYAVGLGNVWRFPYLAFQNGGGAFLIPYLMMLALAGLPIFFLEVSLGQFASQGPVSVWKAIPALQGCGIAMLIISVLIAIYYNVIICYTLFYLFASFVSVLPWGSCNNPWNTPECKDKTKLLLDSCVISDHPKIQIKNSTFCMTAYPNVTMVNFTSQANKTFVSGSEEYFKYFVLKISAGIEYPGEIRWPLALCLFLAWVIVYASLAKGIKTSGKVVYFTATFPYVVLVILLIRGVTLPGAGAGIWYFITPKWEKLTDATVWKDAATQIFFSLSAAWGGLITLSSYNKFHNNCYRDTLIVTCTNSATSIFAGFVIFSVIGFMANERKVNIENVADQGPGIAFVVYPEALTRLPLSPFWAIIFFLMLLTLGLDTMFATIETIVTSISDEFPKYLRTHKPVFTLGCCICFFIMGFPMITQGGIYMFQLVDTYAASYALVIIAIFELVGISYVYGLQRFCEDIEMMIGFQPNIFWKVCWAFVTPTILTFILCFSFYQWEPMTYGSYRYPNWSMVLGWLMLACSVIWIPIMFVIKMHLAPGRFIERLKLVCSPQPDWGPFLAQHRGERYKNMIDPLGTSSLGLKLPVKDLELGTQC
The experiment in a line: (§1) Inhibition of [3H]glycine uptake at human GlyT2 by radiometric assay.

The target of series [9] is T2, Sodium- and chloride-dependent glycine transporter 1 (Homo sapiens) (UniProt P48067).
T2 sequence (whole entry): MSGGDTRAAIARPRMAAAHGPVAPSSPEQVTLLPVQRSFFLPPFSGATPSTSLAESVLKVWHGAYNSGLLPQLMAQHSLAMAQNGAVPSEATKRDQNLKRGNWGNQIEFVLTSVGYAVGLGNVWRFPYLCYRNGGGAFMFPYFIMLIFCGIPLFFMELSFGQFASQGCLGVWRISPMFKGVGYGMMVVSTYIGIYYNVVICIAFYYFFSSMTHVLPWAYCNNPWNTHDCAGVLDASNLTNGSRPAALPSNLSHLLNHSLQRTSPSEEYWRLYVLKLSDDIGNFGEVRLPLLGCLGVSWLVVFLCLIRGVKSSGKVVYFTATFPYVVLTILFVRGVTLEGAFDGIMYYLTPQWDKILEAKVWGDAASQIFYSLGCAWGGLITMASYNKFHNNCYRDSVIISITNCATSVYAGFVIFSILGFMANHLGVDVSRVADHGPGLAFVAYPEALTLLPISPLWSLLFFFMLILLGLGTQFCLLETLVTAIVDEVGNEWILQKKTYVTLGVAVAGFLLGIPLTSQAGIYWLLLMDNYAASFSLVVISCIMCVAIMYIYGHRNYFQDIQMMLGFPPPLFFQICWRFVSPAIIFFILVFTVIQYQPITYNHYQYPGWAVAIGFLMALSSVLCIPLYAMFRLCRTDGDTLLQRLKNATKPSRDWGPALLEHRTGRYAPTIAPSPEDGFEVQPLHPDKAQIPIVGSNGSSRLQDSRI
Description: (§2) Inhibition of [3H]glycine uptake at human GlyT1 by radiometric assay.

The target of series [10] is T3, Sodium- and chloride-dependent glycine transporter 1 (Homo sapiens, UniProt P48067).
T3 sequence (P48067 whole entry): T2 sequence (whole entry)
The series is described as §2.

Series [11] deals with T4, Sodium- and chloride-dependent glycine transporter 2 (Homo sapiens, UniProt Q9Y345).
T4 sequence (Q9Y345 whole entry): T1 sequence (whole entry)
The description is as §1.

A further series concerns the target Nociceptin receptor (Homo sapiens, UniProt P41146). Description: Displacement of [3H]NOP from human NOP receptors expressed in HEK293 cells. The class given is cell-based. On the technique in general: Displacement assays read how much labelled ligand stays bound in the presence of the test substance.
Series [12] is described as follows: Intrinsic clearance in mouse microsome. It is filed as ADME. The following applies: microsomes.
In series [13] the target is Voltage-gated inwardly rectifying potassium channel KCNH2 (Homo sapiens, UniProt Q12809). Description: Inhibition of hERG potassium channel expressed in CHO cells by whole cell patch clamp method. It is filed as toxicity, cell-based. (In general: The hERG channel carries a current that helps repolarise heart muscle cells.)
Sequence of Voltage-gated inwardly rectifying potassium channel KCNH2 (Q12809 whole entry): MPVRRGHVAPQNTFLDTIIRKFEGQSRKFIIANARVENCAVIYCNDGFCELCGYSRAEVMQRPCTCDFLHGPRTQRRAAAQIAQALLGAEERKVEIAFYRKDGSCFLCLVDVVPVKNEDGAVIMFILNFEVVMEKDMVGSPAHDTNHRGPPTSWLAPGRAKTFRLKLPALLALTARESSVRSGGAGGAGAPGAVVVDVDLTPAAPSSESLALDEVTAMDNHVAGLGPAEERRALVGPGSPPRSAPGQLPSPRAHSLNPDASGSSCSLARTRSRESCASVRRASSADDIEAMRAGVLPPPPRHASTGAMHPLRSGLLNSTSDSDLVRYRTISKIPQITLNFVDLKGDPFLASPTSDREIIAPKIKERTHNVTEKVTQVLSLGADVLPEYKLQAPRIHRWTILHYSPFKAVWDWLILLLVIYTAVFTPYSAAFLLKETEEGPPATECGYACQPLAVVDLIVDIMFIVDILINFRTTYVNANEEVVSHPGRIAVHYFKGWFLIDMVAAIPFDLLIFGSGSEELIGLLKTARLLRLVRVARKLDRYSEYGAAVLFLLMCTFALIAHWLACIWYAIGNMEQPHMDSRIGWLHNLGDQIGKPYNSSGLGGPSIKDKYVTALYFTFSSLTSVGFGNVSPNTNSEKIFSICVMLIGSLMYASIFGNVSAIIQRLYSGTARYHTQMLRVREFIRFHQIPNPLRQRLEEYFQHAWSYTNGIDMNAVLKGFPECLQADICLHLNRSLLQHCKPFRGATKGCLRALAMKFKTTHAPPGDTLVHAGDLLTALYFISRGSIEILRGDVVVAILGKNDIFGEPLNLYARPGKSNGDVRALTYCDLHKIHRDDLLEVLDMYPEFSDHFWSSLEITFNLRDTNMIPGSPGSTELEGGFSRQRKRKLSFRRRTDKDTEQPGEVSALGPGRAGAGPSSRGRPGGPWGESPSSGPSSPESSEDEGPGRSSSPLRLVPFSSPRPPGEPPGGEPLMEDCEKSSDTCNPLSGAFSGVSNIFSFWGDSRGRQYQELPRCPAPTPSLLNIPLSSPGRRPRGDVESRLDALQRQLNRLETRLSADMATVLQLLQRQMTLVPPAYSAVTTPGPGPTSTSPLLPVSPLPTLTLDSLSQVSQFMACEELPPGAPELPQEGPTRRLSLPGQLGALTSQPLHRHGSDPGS
A short description of series [14]: Volume of distribution in mouse. The note with it: in vivo, read-out: Vss. It is filed as ADME, organism-based.
A short description of series [15]: Clearance in mouse. It is filed as ADME, organism-based. The note with it: in vivo.
The nature of series [16]: Oral bioavailability in mouse. The class given is ADME, organism-based. The note with it: in vivo.

Sequence of Nociceptin receptor (P41146 whole entry): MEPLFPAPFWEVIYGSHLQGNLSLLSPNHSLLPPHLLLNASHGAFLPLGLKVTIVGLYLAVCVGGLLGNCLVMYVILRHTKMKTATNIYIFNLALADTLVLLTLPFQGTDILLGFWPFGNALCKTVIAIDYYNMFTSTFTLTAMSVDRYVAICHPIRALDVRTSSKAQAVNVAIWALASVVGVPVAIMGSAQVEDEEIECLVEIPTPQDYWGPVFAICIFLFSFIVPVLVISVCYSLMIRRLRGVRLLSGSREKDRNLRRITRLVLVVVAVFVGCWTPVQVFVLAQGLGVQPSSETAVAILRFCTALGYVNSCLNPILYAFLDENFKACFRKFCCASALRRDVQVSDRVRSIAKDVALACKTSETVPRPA

Turning to `O=C1NCN(c2ccccc2)C12CCN(C1CCCCC1c1ccccc1)CC2` (stereo not given), the microsomal CLint stood at 68 µL/min/mg in series [1] and 240 µL/min/mg in series [5]. Also, the clearance in series [2] stood at 120 mL/min/kg. Further, the bioavailability in series [3] was 8%. Further, the Vd in series [4] amounted to 7.3 L/kg. Besides, in series [6], the Kp was found to be 1.6.
Take `O=C1NCC(c2ccc(F)cc2)C12CCN(C1CCCCC1(O)c1ccccc1)CC2` (stereo not given): the pKa in series [7] is 6.89. The result in [8] was inactive. Further, the Activity in series [9] worked out at 91 nM.
On to `O=C1NCN(c2ccccc2)C12CCN(C1CCCCC1(O)c1ccc(F)cc1)CC2` (stereo not given), for which the values for the microsomal CLint in series [1] and in series [5] were 78 µL/min/mg and 499 µL/min/mg, respectively. Further, the EC50 in [10] was found to be 24 nM.
For the compound `O=C1NCC(c2ccccc2)C12CCN(C1CCCCC1(O)c1ccc(F)cc1)CC2` (single isomer, unassigned; diastereomer 1), the values for the microsomal CLint in series [1] and in [12] were 44 µL/min/mg and 13 µL/min/mg, respectively. The compound also gave a pKa in series [7] of 8.54. The EC50 in [11] is more than 30000 nM; in series [10], 70 nM. Also, the IC50 is more than 10000 nM at Nociceptin receptor (hek293) and 1800 nM in series [13].
Regarding `O=C1NCC(c2ccccc2)C12CCN(C1CCCCC1(O)c1ccc(F)cc1)CC2` (single isomer, unassigned; diastereomer 3), in [11], the EC50 is more than 30000 nM. In addition, the IC50 at Nociceptin receptor is more than 10000 nM.
As to `O=C1NC[C@@H](c2ccccc2)C12CCN(C1CCCCC1c1ccccc1)CC2` (stereo in doubt; 3), the results for the half-maximal effective concentration (EC50) in series [11] and in series [10] were 25000 nM and 232 nM, respectively. This compound displayed an IC50 at Nociceptin receptor of more than 10000 nM.
For `O=C1NC[C@@H](c2ccccc2)C12CCN(C1CCCCC1c1ccccc1)CC2` (stereo in doubt; 27), the microsomal CLint in series [1] came out at 23 µL/min/mg; in [12] it was 36 µL/min/mg. The clearance in series [2] amounted to 63 mL/min/kg; in series [15], 99 mL/min/kg. Further, the Vd in series [14] turned out to be 8.9 L/kg; in [4], 4.3 L/kg. The compound further had a pKa in [7] of 8.85. The compound further yielded an EC50 in series [10] of 61 nM. Further, the bioavailability in series [16] is 27%. Further, in series [6], the Kp is 5.2. Further, the IC50 in series [13] was 1400 nM.
